In general, IC50 refers to the concentration that gives 50% inhibition.

Assay [1] deals with T1, His-tagged human recombinant kinase full-length Akt2 (Homo sapiens, UniProt P31751).
T1 construct: His-tagged human recombinant kinase full-length Akt2; His; purchased Invitrogen PV 3975; host or cells: insect cells
Briefly: Akt2 kinase assay (TR-FRET). It counts as biochemical. The settings on record: 10 μM ATP, 60 min at 22° C., read-out: Akt2, median IC50. An outline of the steps: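 His-tagged full-length human Akt2, insect-cell expressed and PDK1-activated (~0.2 ng/μl final), pre-incubated with compound 15 min at 22 °C, then reacted 60 min with 10 μM ATP and 1 μM biotinylated peptide. Phospho-peptide detected by TR-FRET (665/620 nm ratio), normalised to no-inhibitor and no-enzyme controls.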
For orientation: In TR-FRET formats the signal depends on donor and acceptor labels being close together.

The subject of assay [2] is p-AKT S473 in PC3 human prostate tumours. The assay can be described thus: In vivo xenograft mechanism of action study. Also on record: species or system athymic nude mice. The settings on record: PC3 tumours xenografted onto nude mice, treated once with 50 mg/kg p.o., 5 hours post treatment. The source says: To this extent PC3 human prostate tumours were xenografted onto athymic nude mice. PC3 tumour cells were cultivated according to ATCC protocols in recommended media contained 10% FCS and harvested for transplantation in a subconfluent (70%) state. 3×10^6 tumour cells suspended in 50% Matrigel were subcutaneously implantated into the inguinal region of male mice. Tumours were allowed to grow to the predetermined size of 60-80 mm^2. When the tumours were approximately in size, the animals were randomized to treatment and control groups (groups size: 9 animals) and treatment was started. Animals were treated once with 50 mg/kg compound or vehicle per oral administration (p.o.) carried out via a gastric tube. Treatment of each animal was based on individual body weight. At 2, 5 and 24 hours post treatment 3 animals each were sacrificed and the PC3 tumours excised. Tumour samples of approximately 5×5×5 mm were lysed on ice in MSD lysis buffer in the presence of protease and phosphatase inhibitors using Tissue Lyzer (Qiagen, Germany). The levels of p-AKT S473 in extracts from tumour tissue were analysed in an ELISA based assay. This assay is based on the “Akt Duplex” of the MULTI-SPOT® Assay System (Fa. Meso Scale Discovery, Cat #N41100B-1) following manufacturers instructions. Each assay used 20 μg of protein extract and measured total AKT and p-AKT content simultaneously in one well. All measurements where at least done in duplicates and confirmed by independent repetition.
Values for P-AKT are expressed as percentage of P-AKT level compared to total-AKT content of the extracts. Vehicle treated tumours were analyzed to determine the basal level of P-AKT in this model and used as a normalization control to determine the % P-AKT relative to vehicle levels.

In assay [3] the test system is phospho-AKT at S473 in KPL4 breast tumour cell line. The assay can be described thus: Cellular p-AKT1/2/3-S473 assay. It counts as cell-based. Conditions: KPL4 cells, treated with compounds for 2 hours; read-out: pAKT-S743 median IC50. Here is the method:
The molecular mechanism of action was investigated in a set of experiments to assess the inhibition of the PI3K-AKT-mTOR pathway in responsive cell lines such as KPL4 breast tumour cell line (PIK3CAH1047R, HER20/E and hormone independent). The phospho-substrates of PI3K-AKT-mTOR axis were used as the read-outs to reflect pathway inhibition. Cells were seeded at 60-80% confluency per well in 96-well cell culture plates. After overnight incubation at 37° C. 5% CO2, cells were treated with compounds and vehicle at 37° C. for 2 hours. Thereafter, cells were lysed in 150 μl lysis buffer and the levels of phospho-AKT at T308 and S473 and p-4E-BP1 at T70 sites were determined with the corresponding AlphaScreen® SureFire® assay kits (Perkin Elmer: 4E-BP1 Assay Kit Cat # TRG4E2S10K; Akt 1/2/3 p-Ser 473 #TGRA4S500 and Akt 1/2/3 p-Thr 308 #TGRA3S500 as well as IgG detection Kit #6760617M) as described in the manuals. All measurements where at least done in duplicates and confirmed by independent repetition.
Alternatively pAKT-S473 was measured using the “Akt Duplex” of the MULTI-SPOT® Assay System (Fa. Meso Scale Discovery, Cat#N41100B-1) following manufacturers instructions. Each assay used 20 μg of protein extract and measured total AKT and p-AKT content simultaneously in one well. All measurements where at least done in duplicates and confirmed by independent repetition. Values for P-AKT are expressed as percentage of P-AKT level compared to total-AKT content of the extracts.

T1 sequence (P31751 whole entry): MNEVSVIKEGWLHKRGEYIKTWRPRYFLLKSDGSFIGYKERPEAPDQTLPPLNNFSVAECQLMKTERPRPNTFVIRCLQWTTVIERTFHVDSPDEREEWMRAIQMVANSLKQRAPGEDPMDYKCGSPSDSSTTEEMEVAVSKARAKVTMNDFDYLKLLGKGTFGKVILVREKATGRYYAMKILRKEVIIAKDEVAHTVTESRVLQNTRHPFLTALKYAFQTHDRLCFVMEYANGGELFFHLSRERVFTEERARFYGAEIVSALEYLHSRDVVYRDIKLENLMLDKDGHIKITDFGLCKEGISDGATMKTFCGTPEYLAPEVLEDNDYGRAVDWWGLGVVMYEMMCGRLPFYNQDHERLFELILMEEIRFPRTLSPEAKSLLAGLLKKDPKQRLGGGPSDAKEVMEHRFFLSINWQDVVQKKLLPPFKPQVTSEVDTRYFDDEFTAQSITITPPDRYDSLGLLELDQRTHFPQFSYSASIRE

For `Cc1cn2cc(-c3ccccc3)c(-c3ccc(C4(N)CCC4)cc3)nc2n1` [Example 2-1, 1-[4-(2-Methyl-6-phenyl-imidazo[1,2-a]pyrimidin-7-yl)-phenyl]-cyclobutylamine], the IC50 in assay [1] is 487 nM. In assay [2], the “P-AKT % relative to control at 5 hours” value turned out to be 6.7%.

With `NC(=O)c1cccc(-c2cnc3nc(-c4ccc(C5(N)CCC5)cc4)c(-c4ccccc4)cn23)c1` [Example 6-2, 3-{7-[4-(1-Amino-cyclobutyl)-phenyl]-6-phenyl-imidazo[1,2-a]pyrimidin-3-yl}-benzamide], the IC50 in assay [1] is 205 nM; in assay [3], 1150 nM.

With `Cn1cc(-c2nc3nc(-c4ccc(C5(N)CCC5)cc4)c(-c4ccccc4)cn3n2)cn1` [Example 5-2, 1-{4-[2-(1-methyl-1H-pyrazol-4-yl)-6-phenyl-[1,2,4]triazolo[1,5-a]pyrimidin-5-yl]-phenyl}-cyclobutylamine], the IC50 worked out at 340 nM in assay [1] and 130 nM in assay [3]. Further, the “P-AKT % relative to control at 5 hours” value in assay [2] is recorded as 17.9%.

`Cc1nc2nc(-c3ccc(C4(N)CCC4)cc3)c(-c3ccccc3)cn2n1` [Example 1-0, 1-[4-(2-methyl-6-phenyl-[1,2,4]triazolo[1,5-a]pyrimidin-5-yl)-phenyl]-cyclobutylamine]: the IC50 in assay [1] worked out at 960 nM. In assay [2], the “P-AKT % relative to control at 5 hours” value is on record as 3.2%.

`CS(=O)(=O)c1ccc(-c2cnc3nc(-c4ccc(C5(N)CCC5)cc4)c(-c4ccccc4)cn23)cc1` [Example 4-0, 1-{4-[3-(4-Methansulfonyl-phenyl)-6-phenyl-imidazo[1,2-a]pyrimidin-7-yl]-phenyl}-cyclobutylamine]: the IC50 in assay [1] came to 299 nM; in assay [3], 230 nM.

On to `NC1(c2ccc(-c3nc4ncc(-c5ccc(F)cc5)n4cc3-c3ccccc3)cc2)CCC1` [Example 6-0, 1-{4-[3-(4-Fluorophenyl)-6-phenyl-imidazo[1,2-a]pyrimidin-7-yl]-phenyl}-cyclobutylamine], for which the concentration for half-maximal inhibition (IC50) in assay [1] is 681 nM; in assay [3] it was 920 nM.

As to `NC1(c2ccc(-c3nc4ncc(-c5cn[nH]c5)n4cc3-c3ccccc3)cc2)CCC1` [Example 6-3, 1-{4-[6-Phenyl-3-(1H-pyrazol-4-yl)-imidazo[1,2-a]pyrimidin-7-yl]-phenyl}-cyclobutylamine], the values for the IC50 in assay [1] and in assay [3] were 165 nM and 240 nM, respectively.

These data come from patent US20130184273A1, “BICYCLIC PYRIMIDINES” (Bayer Intellectual Property GmbH, priority 2010, published 2013).
